SMILES strings stand for the structures.

These results are taken from publication PMC3517478 (BMC Neurology, 2012).

The target in the test is T1, human α1S267I-GlyR expressed in HEK 293 cells (Homo sapiens, UniProt P23415, S295I).
T1 sequence (P23415 29-457 S295I): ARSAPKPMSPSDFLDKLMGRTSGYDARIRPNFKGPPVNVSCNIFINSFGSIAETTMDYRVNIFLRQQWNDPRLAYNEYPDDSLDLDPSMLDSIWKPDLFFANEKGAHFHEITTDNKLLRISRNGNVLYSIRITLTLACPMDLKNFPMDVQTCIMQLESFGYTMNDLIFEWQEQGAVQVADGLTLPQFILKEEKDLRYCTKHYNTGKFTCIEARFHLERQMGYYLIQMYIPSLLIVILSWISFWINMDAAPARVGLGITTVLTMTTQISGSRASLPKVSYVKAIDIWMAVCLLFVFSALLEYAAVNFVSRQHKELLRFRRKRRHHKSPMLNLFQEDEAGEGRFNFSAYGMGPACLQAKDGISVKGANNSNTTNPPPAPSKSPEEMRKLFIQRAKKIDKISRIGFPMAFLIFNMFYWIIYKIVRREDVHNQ
The settings on record: S267I. From the text:
Human α1-, α1R271Q-, α1R271L-, α1R271K and α1S267I-GlyR subunits were transiently transfected into human embryonic kidney cells (HEK 293, ATCC, Manassas, USA). The wild type α1-GlyR -cDNA was cloned in pCIS2 (Invitrogen, San Diego, USA) vector and provided by Prof. Heinrich Betz (Max-Planck-Institut für Hirnforschung, Frankfurt am Main, Germany). For the plasmid cDNA of the mutated α1R271Q-, α1R271L-, α1R271K- and α1S267I-GlyR the eukaryotic expression vector pcDNA1amp (Invitrogen, San Diego, USA), under the control of cytomegalovirus promoter, was used. For site-directed mutagenesis, single stranded template cDNA was synthesized from M13 origin of replication and the mutations of arginine residue (R) at position 271 to glutamine (R271Q), leucine (R271L) or lysine (R271K) and mutation of serine residue (S) at position 267 to isoleucine (S267I) were generated using standard procedures. […] Wild type and mutated α1-GlyR subunits efficiently form homomeric receptors in heterologous expression systems.
HEK 293 cells were cultured in medium containing HAMS’F-12 (Biochrom, Berlin, Germany), supplemented with 10% fetal bovine serum (FBS, Biochrom, Berlin, Germany), 100 U ml^–1 penicillin and 100μgml^–1 streptomycin (Gibco BRL, Life Technologies, Karlsruhe, Germany) at 37°C in a 5% CO2/ 95% air incubator. For transfection cells were suspended in a buffer containing 50mM K2HPO4 (Fluka BioChemika, Seelze, Germany), 20mMK-acetate (Sigma-Aldrich, Taufkirchen, Germany) and 25mM MgSO4 (Sigma-Aldrich, Taufkirchen, Germany) at pH 7.35. To visualize transfected cells, they were co-transfected with cDNA encoding for enhanced green fluorescent protein (EGFP) contained in the pEGFP-N1 expression vector (Clontech, Palo Alto, USA). The corresponding cDNA (5μg for the GlyR and 2.5μg for EGFP) was added to 400μl of the cell suspension and the mixture was rapidly transferred into the electroporation cuvette. For transfection we used an electroporation device by EquiBio (Kent, UK) and a 4mm aluminum electrode electroporation cuvette (Peqlab, Erlangen, Germany).
The phenol derivative 4-chloropropofol ([…]) was provided as pure substance by Prof. Paul M. O’Neill (University of Liverpool, England), prepared as light-protected 1M stock solution in ethanol (EtOH, J.T.Baker, Griesheim, Germany) and stored in glass vessels at −20°C.
Drug-containing vials were vigorously vortexed for 30min. Patch electrodes were filled with an intracellular solution of [mM] KCl 140, MgCl2 2, EGTA 11, HEPES 10, glucose 11, CaCl2 1 with pH 7.3, adjusted with 1 M KOH and a bath solution contained [mM] NaCl 162, KCl 5.31, NaHPO4 0.85, KH2PO4 0.22, HEPES 15, glucose 6.11, pH 7.4 adjusted with 1 M NaOH. Osmolarity of both solutions was set at 280–300 mOsmol.
Whole-cell experiments were performed at a holding potential of −30 mV with a mean seal resistance of 1 GΩ. […] A fast liquid filament switch technique was used for the application of the agonist, presented in pulses of 2 s duration every 20 s. The liquid filament switch technique is able to exchange the solution passing an outside-out patch or small whole-cells within 1–2 ms. We calculated flow rate of background solution through the chamber with 3,4 ml/min corresponding to 4% of maximal pump rate. With regard to the chamber volume of 100 μl the exchange solution time within the chamber was assessed to approximately […], dependent on cell size accordingly. Piezo-switch and small diameter capillary (ID 0.15 mm) within the measurement chamber promoted the millisecond solution exchange. […] The induced current (I) by this saturating control solution was defined as Icontrol. […] The stability of the seal was controlled during the complete experiment via control of the seal resistance. A variation of 10-20% of the basic value was regarded as tolerable.

For the compound `NCC(=O)O` [glycine], the “Current amplitude [% of mean WT current amplitude] ± SEM” value is reported as 68.2±68% and the “nH ± SEM (Hill coefficient), glycine activation” value is 1.1±0.2. In addition, under “10-90% of Imax, monoexponential fit”, the “Rise time ± SEM” value was determined as 6.6 ± 2.5 ms. Moreover, where the note is “saturating glycine 1 mM”, the “Mean current amplitude ± SEM” value came to 1122±765 pA.
